Reference: patent publication US20160324992A1, “IDENTIFICATION AND TREATMENT OF VULNERABLE PLAQUES” (OTTAWA HEART INSTITUTE RESEARCH CORPORATION, priority 2015, published 2016)

Key:
[1] = tested on: human MLKL promoter; settings: RAW macrophages, 50 uM DPI pre-treatment, oxLDL 6 or 24 h
Method: (§1) Promoter Luciferase Assay. Luciferase reporter constructs containing the human MLKL and RIP3 promoters were purchased from SwitchGear Genomics (Carlsbad, CA). RAW264.7 (ATCC) macrophages were plated in 24-well plates in 10% FBS DMEM and transfected using Lipofectamine 2000 (Life Technologies) with MLKL-promoter or RIP3-promoter plasmids (renilla-based luciferase reporter) together with pGL3 basic (firefly-based reporter, Promega) to normalize for transfection efficiency. Twenty-four hours after transfection, cells were treated with or without 100 μg/ml oxLDL as above, for an additional 24 hours. Cells were harvested in lx passive lysis buffer and luciferase measured using the Dual Luciferase Assay (Promega) according to manufacturer's instructions. All experiments were performed in quadruplicate technical replicates at least 3 times.
(§2) Promoter Luciferase Assay. Luciferase reporter constructs containing the human MLKL and RIP3 promoters were purchased from SwitchGear Genomics (Carlsbad, CA). […] Cells were harvested in 1× passive lysis buffer and luciferase measured using the Dual Luciferase Assay (Promega) according to manufacturer's instructions. […]

[2] = tested on: human RIP3 promoter; settings: RAW macrophages, 50 uM DPI pre-treatment, oxLDL 6 or 24 h
Method: as §1, §2

[3] = tested on: PGAM5; settings: macrophages, DPI
[4] = tested on: reactive oxygen species (ROS); settings: BMDMs pre-incubated with 50 μM DPI, oxLDL or oxLDL+zVAD.fmk 3 h
Method: Measurement of Reactive Oxygen Species (ROS). BMDMs were pre-incubated with DPI for 30 minutes followed by the cell permeant reagent 2′, 7′-dichloroflurescin diacetate (DCFDA) fluorescent dye for 1 h. Cells were then treated with oxLDL or oxLDL+zVAD.fmk and fluorescence was measured at 3 h and 24 h as per manufacturers' instructions (Abcam, ab113851).

[5] = tested on: RIP3; settings: BMDMs, pre-treatment with 50 μM DPI
Method: (§3) RNA isolation and quantitative real-time PCR. BMDMs were treated with control media with or without oxLDL or oxLDL+zVAD.fmk for the indicated time points with or without 1 h pre-treatment with 50 μM DPI. Alternatively, BMDMs were polarized to M0, M1 or M2 prior to RNA isolation, as described above. Total RNA was isolated using TRIzol reagent (Invitrogen) as per manufacturer's instructions and cDNA was synthesized using iScript Reverse Transcription kit (BioRad™). Quantitative real-time PCR was performed in triplicate using either the Sso Advanced Universal SYBR Green Supermix (Biorad) or Taqman™ Gene Expression Assay and mRNA level of target genes was normalized to HPRT or β-actin house keeping genes.
(§4) RNA isolation and quantitative real-time PCR. BMDMs were treated with control media with or without oxLDL or oxLDL+zVAD.fmk for the indicated time points with or without 1 h pre-treatment with 50 uM DPI. Alternatively, BMDMs were polarized to M0, M1 or M2 prior to RNA isolation, as described above. […] Quantitative real-time PCR was performed in triplicate using either the Sso Advanced Universal SYBR Green Supermix (Biorad) or Taqman® Gene Expression Assay and mRNA level of target genes was normalized to HPRT or β-actin house keeping genes.

[6] = tested on: MLKL; settings: BMDMs, pre-treatment with 50 μM DPI
Method: as §3, §4

## c1ccc2c(c1)[I+]c1ccccc1-2 [DPI, diphenyleneiodonium]
[1]
  oxLDL-induced MLKL promoter activity (in words): significantly blunted
[2]
  oxLDL-induced RIP3 promoter activity (in words): significantly blunted
[3]
  oxLDL-induced PGAM5 expression (in words): similarly inhibited
[4]
  oxLDL-induced production of ROS (in words): inhibited
[5]
  induction of RIP3 mRNA expression by oxLDL and oxLDL+zVAD.fmk (in words): inhibited
[6]
  induction of MLKL mRNA expression by oxLDL and oxLDL+zVAD.fmk (in words): inhibited
